According to ChEMBL document CHEMBL5033997, “Macrolide Inspired Macrocycles as Modulators of the IL-17A/IL-17RA Interaction” (J Med Chem, 2021):
pIC50: −log10 of the molar value.

Assay: Inhibition of recombinant human IL-17A/IL-17AR protein-protein interaction using TMB substrate compound added on IL17A precoated plate and followed by IL-17AR addition by ELISA

Row | pIC50 | Compound
1 | 4.80 | CO[C@]1(C)C[C@H](O[C@H]2[C@H](C)[C@@H](O[C@@H]3O[C@H](C)C[C@H](N(C)C)[C@H]3O)[C@](C)(O)C[C@@H](C)CN(C)C(=O)[C@H](Cc3ccc(NC(=O)[C@H](Cc4ccccc4Cl)NC(=O)Cc4ccccc4)cc3)NC(=O)[C@H](C(C)C)NC(=O)[C@@H]2C)O[C@@H](C)[C@@H]1O
2 | 7.52 | CO[C@]1(C)C[C@H](O[C@H]2[C@H](C)[C@@H](O[C@@H]3O[C@H](C)C[C@H](N(C)C)[C@H]3O)[C@](C)(O)C[C@@H](C)CN(C)C(=O)C[C@@H](Cc3ccc(NC(=O)[C@H](Cc4ccccc4Cl)NC(=O)Nc4ccccc4F)cc3)NC(=O)[C@H](C(C)C)NC(=O)[C@@H]2C)O[C@@H](C)[C@@H]1O
3 | < 5.00 | CO[C@]1(C)C[C@H](O[C@H]2[C@H](C)[C@@H](O[C@@H]3O[C@H](C)C[C@H](N(C)C)[C@H]3O)[C@](C)(O)C[C@@H](C)CN(C)C(=O)C[C@@H](Cc3ccc(NC(=O)[C@H](Cc4ccccc4Cl)NC(=O)Cc4ccc(C(=O)O)cc4)cc3)NC(=O)[C@H](C(C)C)NC(=O)[C@@H]2C)O[C@@H](C)[C@@H]1O
4 | < 4.52 | CO[C@]1(C)C[C@H](O[C@H]2[C@H](C)[C@@H](O[C@@H]3O[C@H](C)C[C@H](N(C)C)[C@H]3O)[C@](C)(O)C[C@@H](C)CN(C)C(=O)C[C@H](Cc3ccc(NC(=O)[C@H](Cc4ccccc4Cl)NC(=O)Cc4ccccc4)cc3)NC(=O)[C@@H](C(C)C)NC(=O)[C@@H]2C)O[C@@H](C)[C@@H]1O
5 | 4.61 | CO[C@]1(C)C[C@H](O[C@H]2[C@H](C)[C@@H](O[C@@H]3O[C@H](C)C[C@H](N(C)C)[C@H]3O)[C@](C)(O)C[C@@H](C)CN(C)C(=O)C[C@@H](Cc3ccc(NC(=O)[C@H](Cc4ccccc4Cl)NC(=O)Cc4ccccc4)cc3)NC(=O)[C@@H](C(C)C)CNC(=O)[C@@H]2C)O[C@@H](C)[C@@H]1O
6 | 5.58 | CO[C@]1(C)C[C@H](O[C@H]2[C@H](C)[C@@H](O[C@@H]3O[C@H](C)C[C@H](N(C)C)[C@H]3O)[C@](C)(O)C[C@@H](C)CN(C)C(=O)C[C@@H](Cc3ccc(NC(=O)[C@H](Cc4ccccc4Cl)NC(=O)Cc4ccccc4)cc3)NC(=O)[C@H](C3CC3)NC(=O)[C@@H]2C)O[C@@H](C)[C@@H]1O
7 | 6.75 | CO[C@]1(C)C[C@H](O[C@H]2[C@H](C)[C@@H](O[C@@H]3O[C@H](C)C[C@H](N(C)C)[C@H]3O)[C@](C)(O)C[C@@H](C)CN(C)C(=O)C[C@@H](Cc3ccc(NC(=O)[C@H](Cc4ccccc4Cl)NC(=O)NCc4ccc(F)cc4)cc3)NC(=O)[C@H](C(C)C)NC(=O)[C@@H]2C)O[C@@H](C)[C@@H]1O
8 | < 4.52 | CO[C@]1(C)C[C@H](O[C@H]2[C@H](C)[C@@H](O[C@@H]3O[C@H](C)C[C@H](N(C)C)[C@H]3O)[C@](C)(O)C[C@@H](C)CN(C)C(=O)[C@@H](C(C)C)NC(=O)C[C@@H](Cc3ccc(NC(=O)[C@H](Cc4ccccc4Cl)NC(=O)Cc4ccccc4)cc3)NC(=O)[C@@H]2C)O[C@@H](C)[C@@H]1O
9 | 5.17 | CO[C@]1(C)C[C@H](O[C@H]2[C@H](C)[C@@H](O[C@@H]3O[C@H](C)C[C@H](N(C)C)[C@H]3O)[C@](C)(O)C[C@@H](C)CN(C)C(=O)C[C@@H](Cc3ccc(NC(=O)[C@H](Cc4ccccc4Cl)NC(=O)Cc4ccccc4)cc3)NC(=O)CC3(CCCC3)CNC(=O)[C@@H]2C)O[C@@H](C)[C@@H]1O
10 | 6.70 | CO[C@]1(C)C[C@H](O[C@H]2[C@H](C)[C@@H](O[C@@H]3O[C@H](C)C[C@H](N(C)C)[C@H]3O)[C@](C)(O)C[C@@H](C)CN(C)C(=O)C[C@@H](Cc3ccc(NC(=O)[C@H](Cc4ccccc4Cl)NC(=O)Cc4ccccc4F)cc3)NC(=O)[C@H](C(C)C)NC(=O)[C@@H]2C)O[C@@H](C)[C@@H]1O
11 | 6.61 | CO[C@]1(C)C[C@H](O[C@H]2[C@H](C)[C@@H](O[C@@H]3O[C@H](C)C[C@H](N(C)C)[C@H]3O)[C@](C)(O)C[C@@H](C)CN(C)C(=O)C[C@@H](Cc3ccc(NC(=O)[C@H](Cc4ccccc4Cl)NC(=O)C(C)c4ccccc4)cc3)NC(=O)[C@H](C(C)C)NC(=O)[C@@H]2C)O[C@@H](C)[C@@H]1O (stereo partly drawn)
12 | 6.94 | CO[C@]1(C)C[C@H](O[C@H]2[C@H](C)[C@@H](O[C@@H]3O[C@H](C)C[C@H](N(C)C)[C@H]3O)[C@](C)(O)C[C@@H](C)CN(C)C(=O)C[C@@H](Cc3ccc(NC(=O)[C@H](Cc4ccccc4Cl)NC(=O)Cc4ccccc4C)cc3)NC(=O)[C@H](C(C)C)NC(=O)[C@@H]2C)O[C@@H](C)[C@@H]1O
13 | 5.23 | CO[C@]1(C)C[C@H](O[C@H]2[C@H](C)[C@@H](O[C@@H]3O[C@H](C)C[C@H](N(C)C)[C@H]3O)[C@](C)(O)C[C@@H](C)CN(C)C(=O)C[C@@H](Cc3ccc(NC(=O)[C@H](Cc4ccccc4Cl)NC(=O)Cc4ccccc4)cc3)NC(=O)[C@@H]3CCC[C@H]3NC(=O)[C@@H]2C)O[C@@H](C)[C@@H]1O
14 | 7.23 | CO[C@]1(C)C[C@H](O[C@H]2[C@H](C)[C@@H](O[C@@H]3O[C@H](C)C[C@H](N(C)C)[C@H]3O)[C@](C)(O)C[C@@H](C)CN(C)C(=O)C[C@@H](Cc3ccc(NC(=O)[C@H](Cc4ccccc4Cl)NC(=O)OCc4ccccc4)cc3)NC(=O)[C@H](C(C)C)NC(=O)[C@@H]2C)O[C@@H](C)[C@@H]1O
15 | 4.90 | CO[C@]1(C)C[C@H](O[C@H]2[C@H](C)[C@@H](O[C@@H]3O[C@H](C)C[C@H](N(C)C)[C@H]3O)[C@](C)(O)C[C@@H](C)CN(C)C(=O)C[C@@H](Cc3ccc(NC(=O)[C@H](Cc4ccccc4Cl)NC(=O)Cc4ccccc4)cc3)NC(=O)[C@H](CC(C)C)NC(=O)[C@@H]2C)O[C@@H](C)[C@@H]1O
16 | < 4.52 | CO[C@]1(C)C[C@H](O[C@H]2[C@H](C)[C@@H](O[C@@H]3O[C@H](C)C[C@H](N(C)C)[C@H]3O)[C@](C)(O)C[C@@H](C)CN(C)C(=O)C[C@@H](Cc3ccc(NC(=O)[C@H](Cc4ccccc4Cl)NC(=O)Cc4ccccc4)cc3)NC(=O)[C@@H]3CCCN3C(=O)[C@@H]2C)O[C@@H](C)[C@@H]1O
17 | < 4.52 | CO[C@]1(C)C[C@H](O[C@H]2[C@H](C)[C@@H](O[C@@H]3O[C@H](C)C[C@H](N(C)C)[C@H]3O)[C@](C)(O)C[C@@H](C)CN(C)C(=O)C[C@H](Cc3ccc(NC(=O)[C@H](Cc4ccccc4Cl)NC(=O)Cc4ccccc4)cc3)NC(=O)[C@H](C(C)C)NC(=O)[C@@H]2C)O[C@@H](C)[C@@H]1O
18 | < 4.52 | CO[C@]1(C)C[C@H](O[C@H]2[C@H](C)[C@@H](O[C@@H]3O[C@H](C)C[C@H](N(C)C)[C@H]3O)[C@](C)(O)C[C@@H](C)CN(C)C(=O)C[C@@H](Cc3ccc(NC(=O)[C@H](Cc4ccccc4Cl)NC(=O)Cc4ccccc4)cc3)NC(=O)CCNC(=O)[C@@H]2C)O[C@@H](C)[C@@H]1O
19 | < 4.52 | CO[C@]1(C)C[C@H](O[C@H]2[C@H](C)[C@@H](O[C@@H]3O[C@H](C)C[C@H](N(C)C)[C@H]3O)[C@](C)(O)C[C@@H](C)CN(C)C(=O)[C@@H](Cc3ccc(NC(=O)[C@H](Cc4ccccc4Cl)NC(=O)Cc4ccccc4)cc3)NC(=O)[C@@H](C(C)C)CNC(=O)[C@@H]2C)O[C@@H](C)[C@@H]1O
20 | < 4.52 | CO[C@]1(C)C[C@H](O[C@H]2[C@H](C)[C@@H](O[C@@H]3O[C@H](C)C[C@H](N(C)C)[C@H]3O)[C@](C)(O)C[C@@H](C)CN(C)C(=O)[C@H](C(C)C)NC(=O)C[C@@H](Cc3ccc(NC(=O)[C@H](Cc4ccccc4Cl)NC(=O)Cc4ccccc4)cc3)NC(=O)[C@@H]2C)O[C@@H](C)[C@@H]1O
21 | 5.59 | CO[C@]1(C)C[C@H](O[C@H]2[C@H](C)[C@@H](O[C@@H]3O[C@H](C)C[C@H](N(C)C)[C@H]3O)[C@](C)(O)C[C@@H](C)CN(C)C(=O)C[C@@H](Cc3ccc(NC(=O)[C@H](Cc4ccccc4)NC(=O)Cc4ccccc4)cc3)NC(=O)[C@H](C(C)C)NC(=O)[C@@H]2C)O[C@@H](C)[C@@H]1O
22 | 6.52 | CO[C@]1(C)C[C@H](O[C@H]2[C@H](C)[C@@H](O[C@@H]3O[C@H](C)C[C@H](N(C)C)[C@H]3O)[C@](C)(O)C[C@@H](C)CN(C)C(=O)C[C@@H](Cc3ccc(NC(=O)[C@H](Cc4ccccc4Cl)NC(=O)Cc4ccc(C#N)cc4)cc3)NC(=O)[C@H](C(C)C)NC(=O)[C@@H]2C)O[C@@H](C)[C@@H]1O
23 | 6.78 | CO[C@]1(C)C[C@H](O[C@H]2[C@H](C)[C@@H](O[C@@H]3O[C@H](C)C[C@H](N(C)C)[C@H]3O)[C@](C)(O)C[C@@H](C)CN(C)C(=O)C[C@@H](Cc3ccc(NC(=O)[C@H](Cc4c(Cl)cccc4Cl)NC(=O)Cc4ccccc4)cc3)NC(=O)[C@H](C(C)C)NC(=O)[C@@H]2C)O[C@@H](C)[C@@H]1O
24 | 5.59 | CC[C@H](C)[C@@H]1NC(=O)[C@H](C)[C@@H](O[C@H]2C[C@@](C)(OC)[C@@H](O)[C@H](C)O2)[C@H](C)[C@@H](O[C@@H]2O[C@H](C)C[C@H](N(C)C)[C@H]2O)[C@](C)(O)C[C@@H](C)CN(C)C(=O)C[C@@H](Cc2ccc(NC(=O)[C@H](Cc3ccccc3Cl)NC(=O)Cc3ccccc3)cc2)NC1=O
25 | 6.31 | CO[C@]1(C)C[C@H](O[C@H]2[C@H](C)[C@@H](O[C@@H]3O[C@H](C)C[C@H](N(C)C)[C@H]3O)[C@](C)(O)C[C@@H](C)CN(C)C(=O)C[C@@H](Cc3ccc(NC(=O)[C@H](Cc4ccccc4C)NC(=O)Cc4ccccc4)cc3)NC(=O)[C@H](C(C)C)NC(=O)[C@@H]2C)O[C@@H](C)[C@@H]1O
26 | 5.80 | CO[C@]1(C)C[C@H](O[C@H]2[C@H](C)[C@@H](O[C@@H]3O[C@H](C)C[C@H](N(C)C)[C@H]3O)[C@](C)(O)C[C@@H](C)CN(C)C(=O)C[C@@H](Cc3ccc(NC(=O)[C@H](Cc4ccccc4Cl)NC(=O)Cc4ccccc4)cc3)NC(=O)[C@H](C(C)(C)C)NC(=O)[C@@H]2C)O[C@@H](C)[C@@H]1O
27 | < 4.52 | CO[C@]1(C)C[C@H](O[C@H]2[C@H](C)[C@@H](O[C@@H]3O[C@H](C)C[C@H](N(C)C)[C@H]3O)[C@](C)(O)C[C@@H](C)CN(C)C(=O)C[C@@H](Cc3ccc(NC(=O)[C@H](Cc4ccccc4Cl)NC(=O)Cc4ccccc4)cc3)NC(=O)C[C@@H](CC(C)C)NC(=O)[C@@H]2C)O[C@@H](C)[C@@H]1O
28 | 6.26 | CO[C@]1(C)C[C@H](O[C@H]2[C@H](C)[C@@H](O[C@@H]3O[C@H](C)C[C@H](N(C)C)[C@H]3O)[C@](C)(O)C[C@@H](C)CN(C)C(=O)C[C@@H](Cc3ccc(NC(=O)[C@H](Cc4ccccc4Cl)NC(=O)Nc4cccc(F)c4)cc3)NC(=O)[C@H](C(C)C)NC(=O)[C@@H]2C)O[C@@H](C)[C@@H]1O
